Test results taken from patent publication US4140770A, “Benzoylethers and processes for their production” (A. Nattermann & Cie. GmbH, priority 1976, dated 1979).
In brackets after ≈: the same amount, converted by molar mass.

How the values were obtained:
[1] = Acute toxicity (LD50 mouse); settings: in vivo
[2] = Acute toxicity (LD50 rat); settings: in vivo, iv
Excerpt: +according to KOMLOS and PETOCZ, 20 Arzneimittel-Forschung 1338 (1970)

[3] = test system: intestine of the guinea pig (BaCl2-spasmus); assay: Spasmolytic effect, MAGNUS intestine of the guinea pig (against BaCl2-spasmus); settings: Cavia porcellus, read-out: ED50 spasmolytic effect
Excerpt: 2.1 MAGNUS intestine of the guinea pig (against BaCl2 -spasmus)

BaCl2-spasmus = assay: Spasmolysis in situ of a guinea pig modified according to BROCK (against BaCl2-spasmus); type: in vivo
Excerpt: 2.2 Spasmolysis in situ of a guinea pig modified according to BROCK (against BaCl2 -spasmus)

A.femoralis = assay: Increase in peripheral vasodilation (A.femoralis), narcotized dog, planimetric evaluation; type: in vivo
Excerpt: 3.2 Increase in peripheral vasodilation (A.femoralis) in the case of the narcotized dog (with planimetric evaluation taking into account the duration of the effect).

coronary = assay: Increase in coronary vasodilation (Bretschneider catheter), narcotized dog, planimetric evaluation; type: in vivo
Excerpt: 3.3. Increase in coronary vasodilation (Bretschneider catheter) in the case of a narcotized dog (with planimetric evaluation taking into account the duration of the effect).

Effect on blood pressure = type: in vivo
mouse = settings: according to KOMLOS and PETOCZ (1970); cited from earlier work
rat = settings: according to KOMLOS and PETOCZ (1970), cited from earlier work

Compound	LD50 ([1]; iv, read-out: LD50 mouse i.v.) [mg/kg]	LD50 ([1]; po, read-out: LD50 mouse p.o.) [mg/kg]	IC50 [3] [µg/mL]	inhibition (spasmolysis in situ) (BaCl2-spasmus; 5.6 mg/kg i.v.) [%]	inhibition (spasmolysis in situ) (BaCl2-spasmus; 10.0 mg/kg i.v.) [%]	inhibition (spasmolysis in situ) (BaCl2-spasmus; 17.8 mg/kg i.v.) [%]	Increase in peripheral vasodilation (A.femoralis) (A.femoralis; 3.16 mg/kg i.v.)	Increase in peripheral vasodilation (A.femoralis) (A.femoralis; 5.6 mg/kg i.v.)	Increase in peripheral vasodilation (A.femoralis) (A.femoralis; 10.0 mg/kg i.v.)	Increase in coronary vasodilation (coronary; 5.6 mg/kg i.v.)	Effect on blood pressure (Effect on blood pressure; 3.16 mg/kg i.v.)	Effect on blood pressure (Effect on blood pressure; 5.6 mg/kg i.v.)	Effect on blood pressure (Effect on blood pressure; 10.0 mg/kg i.v.)	also measured
CCN(CC)CCOc1c(C)cc(C(=O)CC(c2ccccc2)c2ccccc2)cc1C [BC 58, 4-[2-(N,N-diethylamino)-ethoxy]-3,5-dimethyl-β,β-diphenylpropiophenone]	60	1900	0.044 (≈ 0.102 µM)	55	67	88	approx. 400 ml × min	approx. 800 ml × min	approx. 2,200 ml × min	approx. 680 ml × min	approx. 30 mm Hg	approx. 30 mm Hg	approx. 40 mm Hg	LD50 [2]: 54 mg/kg; duration of the effect (peripheral vasodilation) (A.femoralis; versus papaverine, i.v.): longer duration of the effect; Increase in coronary vasodilation (coronary; 3.16 mg/kg i.v.): approx. 350 ml × min
Cc1cc(C(=O)CC(c2ccccc2)c2ccccc2)cc(C)c1OCCN(C)C [BC 77, 4-[2-(N,N-dimethylamino)-ethoxy]-3,5-dimethyl-β,β-diphenylpropiophenone]	–	–	0.79 (≈ 1.97 µM)	–	–	–	–	–	–	–	–	–	–	–
Cc1cc(C(=O)CC(c2ccccc2)c2ccccc2)cc(C)c1OCCN(C(C)C)C(C)C [BC 79, 4-[2-(N,N-diisopropylamino)-ethoxy]-3,5-dimethyl-β,β-diphenylpropiophenone]	–	–	0.28 (≈ 0.612 µM)	–	–	–	–	–	–	–	–	–	–	–
CC[N+](C)(CC)CCOc1c(C)cc(C(=O)CC(c2ccccc2)c2ccccc2)cc1C [BC 96 a]	7.93	1280	–	–	–	–	–	–	–	–	–	–	–	–
CC[N+](CC)(CCOc1c(C)cc(C(=O)CC(c2ccccc2)c2ccccc2)cc1C)Cc1ccccc1 [BC 96 c]	10 to 12	~2000	–	–	–	–	–	–	–	–	–	–	–	–
COc1ccc(Cc2nccc3cc(OC)c(OC)cc23)cc1OC [Papaverine, reference compound]	44	–	0.79 (≈ 2.33 µM)	5	8	57	approx. 100 ml × min	approx. 250 ml × min	approx. 180 ml × min	approx. 75 ml × min	approx. 25 mm Hg	approx. 35 mm Hg	approx. 40 mm Hg	LD50 mouse p.o. (mouse): 343 mg/kg; LD50 rat i.v. (rat; i.v.): 18 mg/kg; LD50 rat p.o. (rat; p.o.): 325 mg/kg
